In one assay the target is T1, human IL-23R (Homo sapiens, UniProt Q5VWK5).
T1 construct: UniProtKB—Q5VWK5, amino acids 22-629; secretion signal of the plasmid (Promega N1371); expressed in transfected cells
T1 sequence (Q5VWK5 22-629): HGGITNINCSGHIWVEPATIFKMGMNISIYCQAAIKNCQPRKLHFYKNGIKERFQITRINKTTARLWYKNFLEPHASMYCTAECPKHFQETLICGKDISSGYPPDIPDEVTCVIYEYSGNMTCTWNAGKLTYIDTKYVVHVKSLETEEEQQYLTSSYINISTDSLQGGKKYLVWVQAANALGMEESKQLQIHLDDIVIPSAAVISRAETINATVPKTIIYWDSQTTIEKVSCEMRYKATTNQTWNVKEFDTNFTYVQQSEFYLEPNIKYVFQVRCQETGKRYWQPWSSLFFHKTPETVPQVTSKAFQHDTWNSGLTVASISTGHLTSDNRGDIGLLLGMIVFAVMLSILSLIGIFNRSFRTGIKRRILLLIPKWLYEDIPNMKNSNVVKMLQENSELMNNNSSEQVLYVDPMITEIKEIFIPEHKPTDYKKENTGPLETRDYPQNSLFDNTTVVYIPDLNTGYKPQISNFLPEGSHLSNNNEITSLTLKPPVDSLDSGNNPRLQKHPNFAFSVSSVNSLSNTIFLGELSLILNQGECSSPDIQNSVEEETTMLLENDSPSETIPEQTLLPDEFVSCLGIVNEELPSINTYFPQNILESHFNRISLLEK
Kind of assay: Binding assay (NanoBRET displacement of fluorophore-labelled reference compound) for estimating binding affinity to human IL-23R.

Assay [1] addresses IL-23 mediated phospho-STAT3 formation in DB cells (Homo sapiens, UniProt Q5VWK5). The assay can be described thus: Functional inhibition of IL-23 mediated STAT3 signalling (phospho-STAT3 Tyr705 MSD) in DB cells. The format is cell-based. An excerpt: Functional Inhibition of IL-23 Mediated STAT3 Signalling by Compounds
Upon binding of IL-23, the IL-23R forms a heterodimer signalling complex together with IL-12R β1, which through the JAK2/STAT3 pathway promotes phosphorylation of STAT3 to form phospho-STAT3.
The assay was used to quantify the functional antagonism of a compound and to rank order the inhibitor compounds according to their potency. For compounds tested in this assay, the response was normalized relative to control values to calculate the IC50 and maximal inhibitory response from a concentration response curve of the compound in presence of a fixed concentration of human IL-23.
The assay procedure was as follows. […] Following preincubation of the DB cells with inhibitor for 15 min in a cell incubator (37° C., 5% CO2), 20 μL of the prepared 3× the EC80 of hIL-23 solution was added to each well and incubated for 90 min in a cell incubator (37° C., 5% CO2). For some wells buffer only or IL-23 only corresponding to the EC80 was added to obtain readouts needed for normalization. To terminate the assay, the plate was spun at 1000 G for 5 min to pellet cells, the supernatant removed using an 8-channel manual pipette, and then added 50 μL/well Complete Lysis Buffer from the MSD STAT3 kit (Cat #K150SVD, Mesoscale) to the cell pellet. To completely lyse cells to release phospho-STAT3 for detection, the plate was shaken for 10 min at room temperature (500 rpm) sealed with aluminum foil and placed at −80° C. for a minimum of 15 min. Detection of the phospho-STAT3 level in the cell lysate from the individual wells was determined using the MSD STAT3 kit (Cat #K150SVD, Mesoscale) and read on a Meso QuickPlex SQ 120 plate reader (Mesoscale).
For data analysis raw data counts from the Meso QuickPlex SQ 120 plate reader were normalized relative to the response by the EC80 of hIL-23 alone (no compound added) and the buffer level. Compound potency (IC50) and maximal inhibitory response (% inhibition) were estimated by computer-aided curve fitting using a 4-parameter logistic (4PL) non-linear model.

[2] abbreviates: Table 3-1, DB cells, read-out: IC50 (pSTAT3).
The mark [3] stands for this setting: Table 3-1, read-out: Ki hIL-23R.

SMILES strings stand for the structures. Where two headings read alike, the source gives them in different places. *1 amine or outer side, *2 acyl side, *3 side chain or, on linkers, in order; H or OH if unused. Where a SMILES comes first, the peptide text is derived from it. Bridges are numbered along the chain shown (N, C = ends). [ ]: non-standard residue; d: D form. 2Nal = N[C@@H](Cc1ccc2ccccc2c1)C(=O)O; αMeL = CC(C)C[C@](C)(N)C(=O)O; CH2COCH2 = O=C(C[*:1])C[*:2] Bounds are passed on as bounds.

One may read the Ki as a dissociation constant, usually derived from enzyme kinetics or from competition with a known ligand. Usually IC50 stands for the concentration at which inhibition is half-maximal.

Consider `CC(=O)N[C@@H](CC(=O)O)C(=O)N[C@H]1CCCCNC(=O)CC[C@@H](C(=O)N[C@@H](CCCNC(=N)N)C(N)=O)NC(=O)[C@H](CC(C)C)NC(=O)[C@H](Cc2ccc3ccccc3c2)NC(=O)[C@H](Cc2c[nH]c3ccccc23)NC(=O)[C@@H]2CSCc3ccc(cc3)CSC[C@H](NC(=O)[C@H](CO)NC1=O)C(=O)N[C@@H](Cc1c[nH]c3ccccc13)C(=O)N[C@@H](CCC(N)=O)C(=O)N2` [Compound 22, [Ac]-DK(1c)SC(2f)WQC(2f)W[2-Nal]LE(1c)R-[NH2]] (HELM PEPTIDE1{[ac].D.K.S.C.W.Q.C.W.[O=C([C@H](Cc1ccc2ccccc2c1)N[*:1])[*:2]].L.E.R.[am]}|CHEM1{[c1cc(C[*:2])ccc1C[*:1]]}$PEPTIDE1,PEPTIDE1,3:R3-12:R3|PEPTIDE1,CHEM1,5:R3-1:R1|PEPTIDE1,CHEM1,8:R3-1:R2$$$V2.0), for which the Ki on human IL-23R (Table 2-7b, read-out: Ki IL-23R) was 563 nM. In addition, the IC50 in assay [1] (Table 2-7b, DB cells, read-out: IC50 (pSTAT3)) is above 1000 nM; in assay [1] (setting [2]), above 1000 nM.
As to `CC(=O)N[C@@H](CC(=O)O)C(=O)N[C@H]1CCCCNC(=O)CC[C@@H](C(=O)N[C@@H](CCCNC(=N)N)C(N)=O)NC(=O)[C@H](CC(C)C)NC(=O)[C@H](Cc2ccc3ccccc3c2)NC(=O)[C@H](Cc2c[nH]c3ccccc23)NC(=O)[C@@H]2CSCC(=O)CSC[C@H](NC(=O)[C@H](CO)NC1=O)C(=O)N[C@@H](Cc1c[nH]c3ccccc13)C(=O)N[C@@H](CCC(N)=O)C(=O)N2` [Compound 19, [Ac]-DK(1c)SC(2a)WQC(2a)W[2-Nal]LE(1c)R-[NH2]] (HELM PEPTIDE1{[ac].D.K.S.C.W.Q.C.W.[O=C([C@H](Cc1ccc2ccccc2c1)N[*:1])[*:2]].L.E.R.[am]}|CHEM1{[O=C(C[*:1])C[*:2]]}$PEPTIDE1,PEPTIDE1,3:R3-12:R3|PEPTIDE1,CHEM1,5:R3-1:R1|PEPTIDE1,CHEM1,8:R3-1:R2$$$V2.0), the inhibition constant Ki at human IL-23R (Table 2-6b, read-out: Ki IL-23R) was 6.32 nM. Also, the concentration for half-maximal inhibition (IC50) in assay [1] (Table 2-6b, DB cells, read-out: IC50 (pSTAT3)) was found to be 32.3 nM.
`CC(=O)N[C@@H](CC(=O)O)C(=O)N[C@H]1CSCC(=O)CSC[C@@H](C(=O)N[C@@H](CCCNC(=N)N)C(N)=O)NC(=O)[C@](C)(CC(C)C)NC(=O)[C@H](Cc2c[nH]c3ccccc23)NC(=O)[C@H](Cc2ccc3ccccc3c2)NC(=O)[C@@H]2CSCC(=O)CSC[C@H](NC(=O)[C@H](CCC(N)=O)NC1=O)C(=O)N[C@@H](Cc1c[nH]c3ccccc13)C(=O)N[C@@H](CCC(N)=O)C(=O)N2` [Compound 62, [Ac]-DC(1a)QC(2a)WQC(2a)[2-Nal]W[2-Me-Leu]C(1a)R-[NH2]] (Ac-DCQCWQC[2Nal]W[αMeL]CR-NH2; linker 2-11, 4-7 via CH2COCH2): the inhibitory constant (Ki) at human IL-23R was above 1000 nM. Moreover, the IC50 in assay [1] is above 1000 nM.
`CC(=O)N[C@@H](CC(=O)O)C(=O)N[C@H]1CSCC(=O)CSC[C@@H](C(=O)N[C@@H](CCCNC(=N)N)C(N)=O)NC(=O)[C@](C)(CC(C)C)NC(=O)[C@H](Cc2c[nH]c3ccccc23)NC(=O)[C@H](Cc2ccc(O)cc2)NC(=O)[C@@H]2CSCC(=O)CSC[C@H](NC(=O)[C@H](CCC(N)=O)NC1=O)C(=O)N[C@@H](Cc1c[nH]c3ccccc13)C(=O)N[C@@H](CCC(N)=O)C(=O)N2` [Compound 63, [Ac]-DC(1a)QC(2a)WQC(2a)YW[2-Me-Leu]C(1a)R-[NH2]] (Ac-DCQCWQCYW[αMeL]CR-NH2; linker 2-11, 4-7 via CH2COCH2): the Ki on human IL-23R was above 1000 nM. Further, the concentration for half-maximal inhibition (IC50) in assay [1] was above 1000 nM.
Take `CC(=O)N[C@@H](CC(=O)O)C(=O)N[C@H]1CCC(=O)NCCCC[C@@H](C(=O)N[C@@H](CCCNC(=N)N)C(N)=O)NC(=O)[C@H](Cc2c[nH]c3ccccc23)NC(=O)[C@H](Cc2c[nH]c3ccccc23)NC(=O)[C@@H]2CSCC(=O)CSC[C@H](NC(=O)[C@H](CO)NC1=O)C(=O)N[C@@H](Cc1c[nH]c3ccccc13)C(=O)N[C@@H](CCC(N)=O)C(=O)N2` [Ref 7, [Ac]-DE(1c)SC(2a)WQC(2a)WWK(1c)R-[NH2], reference compound] (HELM PEPTIDE1{[ac].D.E.S.C.W.Q.C.W.W.K.R.[am]}|CHEM1{[O=C(C[*:1])C[*:2]]}$PEPTIDE1,PEPTIDE1,3:R3-11:R3|PEPTIDE1,CHEM1,5:R3-1:R1|PEPTIDE1,CHEM1,8:R3-1:R2$$$V2.0): the Ki on human IL-23R (setting [3]) was above 1000 nM. Moreover, on human IL-23R (with reference to Ki and IC50 data of the Examples), the “IL-23R inhibitory activity (in words)” value was “inactive”. The concentration for half-maximal inhibition (IC50) in assay [1] (setting [2]) is above 1000 nM.
As to `CC(=O)N[C@H]1CCC(=O)NCCCC[C@@H](C(=O)N[C@@H](CCCNC(=N)N)C(N)=O)NC(=O)[C@H](CC(C)C)NC(=O)[C@H](Cc2c[nH]c3ccccc23)NC(=O)[C@H](Cc2c[nH]c3ccccc23)NC(=O)[C@@H]2CSCC(=O)CSC[C@H](NC(=O)[C@H](CO)NC1=O)C(=O)N[C@@H](Cc1c[nH]c3ccccc13)C(=O)N[C@@H](CCC(N)=O)C(=O)N2` [Compound 10, [Ac]-E(1c)SC(2a)WQC(2a)WWLK(1c)R-[NH2]] (HELM PEPTIDE1{[ac].E.S.C.W.Q.C.W.W.L.K.R.[am]}|CHEM1{[O=C(C[*:1])C[*:2]]}$PEPTIDE1,PEPTIDE1,2:R3-11:R3|PEPTIDE1,CHEM1,4:R3-1:R1|PEPTIDE1,CHEM1,7:R3-1:R2$$$V2.0), the inhibition constant Ki on human IL-23R (Table 2-4b, read-out: Ki IL-23R) is 101 nM. The half-maximal inhibitory concentration (IC50) in assay [1] (Table 2-4b, DB cells, read-out: IC50 (pSTAT3)) was 617 nM.
In the case of `CC(C)C[C@@H]1NC(=O)[C@H](Cc2c[nH]c3ccccc23)NC(=O)[C@H](Cc2c[nH]c3ccccc23)NC(=O)[C@@H]2CSCC(=O)CSC[C@H](NC(=O)[C@H](CO)NC(=O)[C@@H](NC(=O)[C@@H](N)CC(=O)O)CCC(=O)NCC[C@@H](C(=O)N[C@@H](CCCNC(=N)N)C(N)=O)NC1=O)C(=O)N[C@@H](Cc1c[nH]c3ccccc13)C(=O)N[C@@H](CCC(N)=O)C(=O)N2` [Compound 9, H-DE(1c)SC(2a)WQC(2a)WWL[Dab](1c)R-[NH2]] (HELM PEPTIDE1{D.E.S.C.W.Q.C.W.W.L.[Dab].R.[am]}|CHEM1{[O=C(C[*:1])C[*:2]]}$PEPTIDE1,PEPTIDE1,2:R3-11:R3|PEPTIDE1,CHEM1,4:R3-1:R1|PEPTIDE1,CHEM1,7:R3-1:R2$$$V2.0), the Ki at human IL-23R (setting [3]) is above 1000 nM. For the same compound, in assay [1] (setting [2]), the half-maximal inhibitory concentration (IC50) was above 1000 nM.
In the case of `CC(=O)N[C@@H](CC(=O)O)C(=O)N[C@H]1CCC(=O)NCCCC[C@@H](C(=O)N[C@@H](CCCNC(=N)N)C(N)=O)NC(=O)[C@H](CC(C)C)NC(=O)[C@H](Cc2c[nH]c3ccccc23)NC(=O)[C@H](Cc2c[nH]c3ccccc23)NC(=O)[C@@H]2CSCC(=O)CSC[C@H](NC(=O)[C@H](CO)NC1=O)C(=O)N[C@@H](Cc1c[nH]c3c(C)cccc13)C(=O)N[C@@H](CCC(N)=O)C(=O)N2` [Compound 16, [Ac]-DE(1c)SC(2a)[7-Me-Trp]QC(2a)WWLK(1c)R-[NH2]] (HELM PEPTIDE1{[ac].D.E.S.C.[Cc1cccc2c(C[C@H](N[*:1])C(=O)[*:2])c[nH]c12].Q.C.W.W.L.K.R.[am]}|CHEM1{[O=C(C[*:1])C[*:2]]}$PEPTIDE1,PEPTIDE1,3:R3-12:R3|PEPTIDE1,CHEM1,5:R3-1:R1|PEPTIDE1,CHEM1,8:R3-1:R2$$$V2.0), the Ki on human IL-23R (Table 2-5b, read-out: Ki IL-23R) was 95.4 nM. For the same compound, the half-inhibitory concentration (IC50) in assay [1] (Table 2-5b, DB cells, read-out: IC50 (pSTAT3)) turned out to be 461 nM.

(Values after US20250154198A1, “PEPTIDE INHIBITORS OF INTERLEUKIN-23 RECEPTOR” (Zealand Pharma A/S, priority 2021, published 2025).)
